Data from US6150359A, “Naphthyridinones for inhibiting protein tyrosine kinase and cell cycle kinase mediated cellular proliferation” (Warner-Lambert Company, priority 2000, dated 2000).
pIC50: −log10 of the molar value.

Legend:
[1] = test system: HT-29 cells; experiment: Human Colon Carcinoma Clonogenic Assay, HT-29; format: cell-based; conditions: HT-29, 2 days with drug, colonies after approximately 2 weeks
Method: Human Colon Carcinoma Clonozenic Assay. Human colon carcinoma cells are seeded into 6 well plates in volumes of 3 mL and allowed to incubate overnight (37° C., 5% CO2, 95% air). SW-620 cells are seeded at 7×10^5 per well; HCT-8 cells are seeded at 5×10^5 per well; HT-29 cells are seeded at 4×10^5 cells per well. Serially diluted drugs are prepared at 200 times the final concentration, and 15 μL are added to each of duplicate wells. Cells are incubated with drug for 2 days, rinsed once with 1 mL of trypsin+EDTA, and then trypsinized with the same trypsin solution. After trituration and centrifugation at 750×g for 3 minutes, the cells are suspended in serum-free growth medium and counted using an electronic particle counter. An agarose mixture appropriate for the cloning of each cell line is made using 10% fetal bovine serum in growth medium (SW-620-0.35% agarose, HCT-8 and HT-29-0.4% agarose). […] One; milliliter of each of these cell suspensions is added to duplicate wells of 6 well plates previously prepared with 10% serum/growth medium/1% agarose plugs. The cells in these plates are incubated for approximately 2 weeks in the incubator and stained with 1 mL per well of 1 mg/mL iodonitrotetrazolium violet stain. The visible colonies are counted with an electronic optical colony counter and the clonogenicity of treated cells calculated in comparison to untreated control cells.

[2] = target: T1, insulin receptor (INSr) (Homo sapiens, UniProt P06213); experiment: Insulin receptor (INSr) kinase assay; format: biochemical; conditions: 10 mM manganese chloride
T1 construct: An assay using the intracellular kinase domains of insulin receptor (INSr)
Method: (§1) EGFr. Enzyme assays for IC50 determinations are performed in 96-well filter plates (Millipore MADVN6550). The total volume is 0.1 mL containing 20 mM Hepes, pH 7.4, 50 μM sodium vanadate, 40 mM magnesium chloride, 10 μM ATP containing 0.5 μCi of [^32 P]ATP, 20 μg of polyglutamic acid/tyrosine (Sigma Chemical Co., St. Louis, Mo.), 10 ng of EGF receptor tyrosine kinase and appropriate dilutions of inhibitor. All components except the ATP are added to the well, and the plate is incubated with shaking for 10 minutes at 25° C. The reaction is started by adding [^32 P]ATP, and the plate is incubated at 25° C. for 10 minutes. The reaction is terminated by addition of 0.1 mL of 20% trichloroacetic acid (TCA). The plate is kept at 4° C. for at least 15 minutes to allow the substrate to precipitate. The wells are then washed five times with 0.2 mL of 10% TCA, and ^32 P incorporation is determined with a Wallac beta plate counter.
Other Kinases. An assay using the intracellular kinase domains of insulin receptor (INSr) is performed as described for the EGF receptor except that 10 mM manganese chloride is included in the reaction. The PKC assay is performed as previously described by Martiny-Baron, et al., J. Biol. Chem., 1993;268:9194-9197.

[3] = target: T2, EGFr (Human EGF receptor tyrosine kinase) (Homo sapiens, UniProt P00533); experiment: EGFr tyrosine kinase assay; format: biochemical; conditions: 10 μM ATP
T2 construct: Human EGF receptor tyrosine kinase is isolated from A431 human epidermoid carcinoma cells; endogenous in cells; host or cells: A431 human epidermoid carcinoma cells (detergent lysate, Q Sepharose fractions)
Method: Epidermal Growth Factor Receptor (EGFr). Human EGF receptor tyrosine kinase is isolated from A431 human epidermoid carcinoma cells by the following method. Cells were grown in roller bottles in 50% Dulbecco's Modified Eagle medium and 50% HAM F-12 nutrient media (Gibco) containing 10% fetal calf serum. Approximately 10^9 cells are lysed in two volumes of buffer containing 20 mM 2-(4N-[2-[…]]piperazin-1-yl)ethanesulfonic acid (Hepes), pH 7.4, 5 mM ethylene glycol bis(2-aminoethyl ether) N,N,N',N'-tetraacetic acid (EGTA), 1% Triton X-100, 10% glycerol, 0.1 mM sodium orthovanadate, 5 mM sodium fluoride, 4 mM pyrophosphate, 4 mM benzamide, 1 mM dithiothreitol (DTT), 80 μg/mL aprotinin, 40 μg/mL leupeptin, and 1 mM phenylmethylsulfonyl fluoride (PMSF). After centrifugation at 25,000×g for 10 minutes, the supernatant is applied to a fast Q sepharose column (Pharmacia) and eluted with a linear gradient from 0.1 M NaCl to 0.4 M NaCl in 50 mM Hepes, 10% glycerol, pH 7.4. Enzyme active fractions are pooled, divided into aliquots, and stored at -100° C.
as §1

T2 sequence (P00533 25-1210): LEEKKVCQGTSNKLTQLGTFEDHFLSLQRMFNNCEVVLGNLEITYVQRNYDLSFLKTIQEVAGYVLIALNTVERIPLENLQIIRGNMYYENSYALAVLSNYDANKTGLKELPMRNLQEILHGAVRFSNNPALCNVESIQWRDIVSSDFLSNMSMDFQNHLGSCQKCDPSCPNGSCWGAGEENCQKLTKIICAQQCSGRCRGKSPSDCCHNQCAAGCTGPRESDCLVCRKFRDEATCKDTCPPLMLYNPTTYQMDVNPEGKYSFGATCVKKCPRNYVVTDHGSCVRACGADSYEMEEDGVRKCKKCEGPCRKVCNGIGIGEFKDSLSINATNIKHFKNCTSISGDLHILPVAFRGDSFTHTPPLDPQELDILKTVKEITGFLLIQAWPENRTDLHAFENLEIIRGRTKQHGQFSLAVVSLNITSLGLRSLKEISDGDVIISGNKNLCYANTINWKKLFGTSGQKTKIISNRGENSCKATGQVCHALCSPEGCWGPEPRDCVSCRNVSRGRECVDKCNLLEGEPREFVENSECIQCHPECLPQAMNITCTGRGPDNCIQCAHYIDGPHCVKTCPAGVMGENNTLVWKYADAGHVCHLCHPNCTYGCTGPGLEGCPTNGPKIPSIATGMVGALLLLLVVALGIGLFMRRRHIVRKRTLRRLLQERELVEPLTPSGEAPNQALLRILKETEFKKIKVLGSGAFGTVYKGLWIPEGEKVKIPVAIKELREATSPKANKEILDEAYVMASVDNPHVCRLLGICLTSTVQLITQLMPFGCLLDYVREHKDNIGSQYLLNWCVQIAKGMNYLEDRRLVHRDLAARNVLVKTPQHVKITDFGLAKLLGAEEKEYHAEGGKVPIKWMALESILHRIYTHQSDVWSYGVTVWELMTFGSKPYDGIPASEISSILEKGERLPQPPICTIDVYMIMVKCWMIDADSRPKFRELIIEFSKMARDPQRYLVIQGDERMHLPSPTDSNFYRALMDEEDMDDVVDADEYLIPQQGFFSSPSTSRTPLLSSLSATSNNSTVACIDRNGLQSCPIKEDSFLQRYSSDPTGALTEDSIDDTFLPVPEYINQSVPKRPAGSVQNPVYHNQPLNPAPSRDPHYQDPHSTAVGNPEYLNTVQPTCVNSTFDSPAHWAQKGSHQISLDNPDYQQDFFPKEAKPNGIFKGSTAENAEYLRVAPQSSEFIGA
T1 sequence (P06213 1023-1298 limits assumed, species assumed): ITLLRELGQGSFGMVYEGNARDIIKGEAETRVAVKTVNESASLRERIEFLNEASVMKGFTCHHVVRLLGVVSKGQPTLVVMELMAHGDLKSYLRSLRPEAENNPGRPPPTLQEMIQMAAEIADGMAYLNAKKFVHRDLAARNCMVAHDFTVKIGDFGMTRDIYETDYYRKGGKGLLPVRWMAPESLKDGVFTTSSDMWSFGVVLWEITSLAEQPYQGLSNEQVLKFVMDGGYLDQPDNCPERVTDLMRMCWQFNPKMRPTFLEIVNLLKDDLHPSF

## CCN(CC)CCCCNc1cc2c(cn1)cc(-c1c(Cl)cccc1Cl)c(=O)n2C [Example F, 3-(2,6-dichlorophenyl)-7-[4-(diethylamino)butylamino]-1-methyl-1H-[1,6]naphthyridin-2-one]
[1]
  pIC50: < 5.30
[2]
  pIC50: < 4.30
[3]
  pIC50: 5.42

## CN1CCN(CCCNc2cc3c(cn2)cc(-c2c(Cl)cccc2Cl)c(=O)n3C)CC1 [Example H, 3-(2,6-dichlorophenyl)-1-methyl-7-[3-(4-methylpiperazin-1-yl)propylamino]-1H-[1,6]naphthyridin-2-one]
[1]
  pIC50: < 5.30
[2]
  pIC50: < 4.30
[3]
  pIC50: 5.49

## CCN(CC)CCOc1ccc(Nc2cc3c(cn2)cc(-c2c(Cl)cccc2Cl)c(=O)n3C)cc1 [Example P, 3-(2,6-dichlorophenyl)-7-[(4-(2-(diethylamino)ethoxy)phenyl)amino]-1-methyl-1H-[1,6]naphthyridin-2-one]
[1]
  pIC50: < 5.30
[2]
  pIC50: < 4.30
[3]
  pIC50: 6.23
